Literature values, collected in patent publication US7422793B2, “Non-toxic corrosion-protection rinses and seals based on rare earth elements” (University of Dayton, priority 2002, dated 2008).
Where two headings read alike, the source gives them in different places.

Conditions: cited from earlier work

Molecule	Solubility in Water (pH 7)	Solubility in Water (fluoride preparative agents, at or near 25° C. and at or near pH 7) [mol/L]
[K+].[K+].[O]=[Sn]([O-])[O-] [Potassium stannate]	3.7 × 10^0 mole/L	–
[K+].[O-2].[O-2].[O-2].[Ta+5] [Potassium tantalate]	0.005 mol/L	–
O=[Te](=O)([O-])[O-].[K+].[K+] [Potassium tellurate]	0.01 mol/L	–
F[B-](F)(F)F.[K+] [Potassium tetrafluoroborate]	0.035 mol/L	–
CCC[N+](CCC)(CCC)CCC.[O-][Cl+3]([O-])([O-])[O-] [Pr4N^+ perchlorate]	0.1 mol/L	–
O=[Se](=O)(O)O [Selenic acid]	60 wt. %	–
F[Si-2](F)(F)(F)(F)F.[Ag+].[Ag+] [Silver (I) hexafluorosilicate]	1 × 10^0 mole/L	–
[Na+].[O]=[Al-]=[O] [Sodium aluminate]	1 × 10^0 mole/L	–
[F][Nb-2]([F])([F])([F])([F])([F])[F].[Na+].[Na+] [Sodium heptafluoroniobate]	0.05 mol/L	–
[F][Ta-2]([F])([F])([F])([F])([F])[F].[Na+].[Na+] [Sodium heptafluorotantalate]	0.05 mol/L	–
[F][Al-3]([F])([F])([F])([F])[F].[Na+].[Na+].[Na+] [Sodium hexafluoroaluminate]	0.0029 mol/L	–
[F][Sb-]([F])([F])([F])([F])[F].[Na+] [Sodium hexafluoroantimonate]	4.97 × 10^0 mole/L	–
[F][Ge-2]([F])([F])([F])([F])[F].[Na+].[Na+] [Sodium hexafluorogermanate]	0.01 mol/L	–
[F][Hf-2]([F])([F])([F])([F])[F].[Na+].[Na+] [Sodium hexafluorohafnate]	0.07 mol/L	–
F[Si-2](F)(F)(F)(F)F.[Na+].[Na+] [Sodium hexafluorosilicate]	–	0.035
[F-].[F-].[F-].[F-].[F-].[F-].[Na+].[Na+].[Sn+4] [Sodium hexafluorostannate]	0.01 mol/L	–
[F][Zr-2]([F])([F])([F])([F])[F].[Na+].[Na+] [Sodium hexafluorozirconate]	0.06 mol/L	–
[Na+].[Na+].[O]=[Mo](=[O])([O-])[O-] [Sodium molybdate]	215 mol/L	–
[Na+].[O]=[Nb](=[O])[O-] [Sodium niobate]	0.059 mol/L	–
[O-][Cl+3]([O-])([O-])O [Sodium perchlorate]	12 mol/L	–
[Na+].[Na+].[O-][O-] [Sodium peroxide]	1 × 10^0 mole/L	–
O=[Se](=O)(O)O [Sodium selenate]	1.2 × 10^0 mole/L	–

Molecule	Solubility in Water (pH 7)	Solubility in Water (fluoride preparative agents, at or near 25° C. and at or near pH 7) [mol/L]
[Na+].[Na+].[O]=[Sn]([O-])[O-] [Sodium stannate]	2.3 × 10^0 mole/L	–
[Na+].[O-2].[O-2].[O-2].[Ta+5] [Sodium tantalate]	0.0055 mol/L	–
[O-][Cl+2]([O-])[O-].[O-][Cl+2]([O-])[O-].[Sr+2] [Strontium chlorate]	6.9 × 10^0 mole/L	–
[O-][Cl+3]([O-])([O-])[O-].[O-][Cl+3]([O-])([O-])[O-].[Sr+2] [Strontium perchlorate]	13 mol/L	–
O[Te](O)(O)(O)(O)O [Telluric acid]	0.5 mol/L	–
[O]=[W](=[O])([OH])[OH] [Tungstic acid]	0.8 mol/L	–
[O-][Cl+2]([O-])[O-].[O-][Cl+2]([O-])[O-].[Zn+2] [Zinc chlorate]	8.6 × 10^0 mole/L	–
F[Si-2](F)(F)(F)(F)F.[Zn+2] [Zinc hexafluorosilicate]	1.11 × 10^0 mole/L	–
[O-][Cl+3]([O-])([O-])[O-].[O-][Cl+3]([O-])([O-])[O-].[Zn+2] [Zinc perchlorate]	1 × 10^0 mole/L	–
Ammonium selenate	6.0 × 10^0 mole/L	–
Calcium vanadate	0.5 mol/L	–
Cesium bromate	0.14 mol/L	–
Cesium germanate	0.5 mol/L	–
Cesium tungstate	5 × 10^0 mole/L	–
Chloroperoxybenzoic acid	10 mol/L	–
Copper (II) hexafluorosilicate	7.4 × 10^0 mole/L	–
Iron (III) hexafluorosilicate	“soluble”	–
Lithium bromate	4.85 × 10^0 mole/L	–
Lithium germanate	0.063 mol/L	–
Magnesium hexaniobate	0.088 mol/L	–
Magnesium tungstate hydrate	0.72 mol/L	–
Magnesium vanadate	1 × 10^0 mole/L	–

Molecule	Solubility in Water (pH 7)	Solubility in Water (fluoride preparative agents, at or near 25° C. and at or near pH 7) [mol/L]
Manganese (II) Fluorosilicate	4.59 × 10^0 mole/L	–
Potassium arsenate	0.74 mol/L	–
Potassium fluoroaluminate	0.0061 mol/L	–
Potassium germanate	1 × 10^0 mole/L	–
Potassium niobate	0.05 mol/L	–
Potassium superoxide	1 × 10^0 mole/L	–
Potassium tungstate	142 mol/L	–
Potassium vanadate	1 × 10^0 mole/L	–
Rubidium bromate	0.14 mol/L	–
Rubidium germanate	0.5 mol/L	–
Rubidium heptafluoroniobate	0.1 mol/L	–
Rubidium heptafluorotantalate	0.1 mol/L	–
Rubidium hexafluorohafnate	0.19 mol/L	–
Rubidium hexafluorostannate	0.062 mol/L	–
Rubidium hexafluorotitanate	0.025 mol/L	–
Rubidium hexafluorozirconate	0.0848 mol/L	–
Rubidium periodate	0.024 mol/L	–
Rubidium stannate	5 × 10^0 mole/L	–
Rubidium tellurate	0.01 mol/L	–
Rubidium tungstate	50 mol/L	–
